Source: PMC9037311 (RSC Advances, 2021)

Assay: Pharmacokinetic study after oral administration to rats
Format: in vivo, Sprague-Dawley male rats

For `O=C([O-])Cc1ccccc1Nc1c(Cl)cccc1Cl.[K+]` [DCFP, Diclofenac potassium], the “AUC(0–t)” value (25 mg kg^−1) was 53.99 ± 3.18 mg/L/h, the “AUC(0–∞)” value (25 mg kg^−1) was 59.22 ± 5.23 mg/L/h and the Cmax (25 mg kg^−1) was 15520 ± 1050 ng/mL. The blood drug concentration (at 10 h) was “nearly undetectable” and the blood drug concentration (within 1 h) was “not detectable”.
